The text below walks through data of paper PMC3479967 (Evidence-based Complementary and Alternative Medicine : eCAM, 2012).

Each structure is given as a SMILES string.

The target of the experiment is T1, UGT1A10 (Homo sapiens, UniProt Q9HAW8).
T1 sequence (Q9HAW8 26-530): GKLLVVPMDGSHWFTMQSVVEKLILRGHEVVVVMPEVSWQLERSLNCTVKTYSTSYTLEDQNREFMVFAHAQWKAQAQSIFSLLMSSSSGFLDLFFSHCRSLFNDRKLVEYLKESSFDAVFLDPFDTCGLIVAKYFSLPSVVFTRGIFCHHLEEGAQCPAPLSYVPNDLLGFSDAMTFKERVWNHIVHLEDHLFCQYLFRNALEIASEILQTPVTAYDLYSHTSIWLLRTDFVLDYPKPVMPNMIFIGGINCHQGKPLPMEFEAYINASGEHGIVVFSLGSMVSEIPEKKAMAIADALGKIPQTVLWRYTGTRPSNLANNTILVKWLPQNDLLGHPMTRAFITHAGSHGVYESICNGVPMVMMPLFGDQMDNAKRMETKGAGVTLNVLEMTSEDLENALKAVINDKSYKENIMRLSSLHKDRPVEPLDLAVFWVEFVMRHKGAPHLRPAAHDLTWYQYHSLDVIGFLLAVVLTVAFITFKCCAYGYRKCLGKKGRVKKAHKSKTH
Put plainly: Inhibition of recombinant UGT1A10 activity (4-MU glucuronidation). The procedure: A panel of recombinant human UGT supersomes (UGT1A1, UGT1A3, UGT1A4, UGT1A6, UGT1A7, UGT1A8, UGT1A9, UGT1A10, UGT2B4, UGT2B7, UGT2B15, and UGT2B17) expressed in baculovirus-infected insect cells were purchased from BD Gentest Corp. (Woburn, MA, USA).
4-MU, a nonselective substrate of UGTs, was used as probe substrate for all UGTs except UGT1A4. Incubations with each individual enzyme were conducted using conditions previously described. There was a 5 min preincubation step at 37°C before the reaction was started by addition of UDPGA. The incubation mixtures were then centrifuged at 20,500 ×g for 15 min to obtain the supernatant. Aliquots (20 μL) were then analyzed by HPLC. The HPLC system (SHIMADZU, Kyoto, Japan) consisted of an SCL-10A system controller, two LC-10AT pumps, a SIL-10A auto injector, and a SPD-10AVP UV detector. Chromatographic separation was achieved using a Kromasil ODS column (4.6 × 150 mm I.D., 5 μm particle size) at a flow rate of 1 mL/min and UV detection at 316 nm. The mobile phase consisted of 10 mM KH2PO4, pH 2.7 (A) and acetonitrile (B). The following gradient was applied at a flow rate of 1 mL/min: 0–4 min 80% A and 20% B, 4.1–8 min 50% A and 50% B, 8.1–12 min, 30% A and 70% B. All experiments were performed in two independent experiments in duplicate.
A typical incubation mixture contained recombinant human UGTs, 5 mM MgCl2, 5 mM UDPGA, 50 μg/mg protein alamethicin, 50 mM Tris-HCl buffer (pH 7.4), and various probe substrates of UGTs in the absence or presence of different concentrations of inhibitors. […] The final concentration of DMSO in the incubation system was 1% (v/v). […]
Inhibition data from experiments were graphically represented by Dixon plots. K i values were calculated by nonlinear regression using the equations for competitive inhibition (1), noncompetitive inhibition (2), or mixed inhibition (3), [22] […] The type of inhibition was determined from the enzyme inhibition models. Goodness of fit to kinetic and inhibition models was assessed from the F statistic, r ^2 values, parameter standard error estimates, and 95% confidence intervals. […]
What is called IC50 is the concentration that inhibits the measured activity by half. Consider `COc1ccc(-c2oc3c(CC=C(C)C)c(O)cc(O)c3c(=O)c2O)cc1` [Icaritin], for which the IC50 was above 100 µM.

For the compound `COc1ccc(-c2oc3c(CC=C(C)C)c(O[C@@H]4O[C@H](CO)[C@@H](O)[C@H](O)[C@H]4O)cc(O)c3c(=O)c2O[C@@H]2O[C@@H](C)[C@H](O)[C@@H](O)[C@H]2O)cc1` [Icariin], the 50% inhibitory concentration (IC50) is above 100 µM.

`COc1ccc(-c2oc3c(CC=C(C)C)c(O[C@@H]4O[C@H](CO)[C@@H](O)[C@H](O)[C@H]4O)cc(O)c3c(=O)c2O)cc1` [Icariside I]: the IC50 is above 100 µM.
